Reference: US20170209579A1, “NON-INVASIVE RADIOFREQUENCY FIELD TREATMENT FOR CANCER THERAPY” (Baylor College of Medicine, priority 2014, published 2017)

System: γ-H2AX foci in Hep3B cells
Assay: γ-H2AX foci in Hep3B cells (immunocytochemistry, confocal)
Type: cell-based, human
Method: Approximately 50,000 cells were seeded in each well of a 12-well plate and grown on circular #1.5 cover slips (Electron Microscopy Sciences, Hatfield, Pa.). After 24 hours, cells were exposed to various treatment conditions as described herein. At the end of treatment, cells were fixed, permeabilized, blocked, labeled with primary antibody, and then with secondary antibody in consecutive steps. For confocal imaging, Fluoview—FV1000 Olympus Confocal Microscope (Center Valley, Pa.) was used.
For immunocytochemistry assay, an indirect immunofluorescence approach was used. Circular #1.5 cover slips (Electron microscopy sciences, Hatfield, Pa.) were placed in 12-well plates and sterilized using a 20-minute UV exposure. Cells from an exponentially growing culture were counted and approximately 50,000 cells were seeded in each well of a 12-well plate. Adherent sub-confluent monolayers were observed growing on the cover slip 24 hours later. At this point, cells were exposed to various treatment conditions as described herein. At the end of treatment, immunolabeling of proteins being studied was performed. Cells were fixed, permeablized, blocked, labeled with primary antibody and then with secondary antibody in consecutive steps. Between each step, cells were washed with PBS three times for 5 minutes each time on a leveled shaker at 50 RPM. Cells were fixed with 1% paraformaldehyde in PBS (w/v) for 30 minutes. Permeablization was performed using 0.3% (v/v) Triton-100 and 0.125% (w/v) CHAPS (3-[(3-Cholamidopropyl) dimethylammonio]-1-propanesulfonate) dissolved in PBS for 15 minutes. […] Primary and secondary antibodies were diluted in the blocking buffer. Incubation with primary antibody was performed over night at 4° C. Secondary antibody incubations were performed for 2 hours at room temperature. […]
The slides were sealed with a conventional nail polish hardener and stored at 4° C. until imaging. […] Exposure settings were set to maximize dynamic range initially and then kept constant across multiple samples to allow quantitative comparisons. […]

Nc1ccn([C@@H]2O[C@H](CO)[C@@H](O)C2(F)F)c(=O)n1 [gemcitabine, 2′,2′-difluoro 2′-deoxycytidine]
persistence of γ-H2AX positive cells, gemcitabine and hyperthermia versus either alone (gemcitabine 100 nM 24 hours, last two hours 42.5° C.): persisted for a longer duration
relative mean (±SD) γ-H2AX pixels per cell (gemcitabine alone): 1.0±0.26
relative mean (±SD) γ-H2AX pixels per cell (hyperthermia immediately followed by gemcitabine): 1.0±0.20
